Experimental data published in patent publication US10383861B2, “3-(1H-pyrrolo[2,3-C]pyridin-2-yl)-1H-pyrazolo[3,4-C]pyridines and therapeutic uses thereof” (Samumed, LLC, priority 2015, dated 2019).
pEC50: −log10 of the molar value.

Key:
Assay type in all cases: cell-based
[1] = system: primary human mesenchymal stem cells (hMSCs); experiment: Induction of chondrogenesis in hMSCs (nodule count, Rhodamine B/Nile Red); conditions: 6 days; for EC50: concentration required to induce 50% levels of chondrogenesis vs TGF-β3, read-out: Conc (nM) of 50% TGF-β3 activity; for Emax: relative to TGF-β3 (10 ng/mL) positive control, read-out: Max. Activity as % TGF-β3 activity
Excerpt: Representative compounds were screened using primary human mesenchymal stem cells (hMSCs) to determine their ability to induce chondrogenesis (process by which cartilage is developed).
Primary human mesenchymal stem cells (hMSCs) were purchased from Lonza (Walkersville, Md.) and expanded in Mesenchymal Stem Cell Growth Media (Lonza). Cells between passage 3 and 6 were used for the experiments.
To image chondrogenic nodules, the cells were fixed using 4% formaldehyde (Electron Microscopy Sciences), and stained with 2 μg/mL Rhodamine B (Sigma-Aldrich) and 20 μM Nile Red (Sigma-Aldrich) [Johnson K., et.al, A Stem Cell-Based Approach to Cartilage Repair, Science, (2012). […] Number of nodules in each well was normalized to the average of 3 DMSO treated wells on the same plate using Excel (Microsoft Inc.). The normalized averages (fold change over DMSO) of 3 replicate wells for each compound concentration were calculated. Due to solubility limitations of some of the compounds, curve fitting was incomplete leading to inaccurate EC50 determinations.
Using TGF-β3 as a positive control, the concentration of representative compounds required to induce 50% levels of chondrogenesis is reported. In addition, the maximum activity of each compound and the respective dose that each compound reached maximum chondrogenesis activity is reported.

Wnt activity = Wnt activity screening assay, Sp5-Luc reporter gene in SW480 cells; conditions: Homo sapiens; for inhibition at 10 µM: SW480, read-out: percent inhibition at 10 μM; for pEC50: Sp5-Luc reporter, SW480 cells, overnight incubation
Procedure, shortened: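 SW480 cells stably transduced with lentiviral Sp5 promoter (eight TCF/LEF sites)-firefly luciferase, plated at 4,000 cells/well in 1% FBS medium and incubated overnight at 37° C. Luminescence read after BrightGlo addition, normalized to DMSO-only cells; EC50 from four-parameter variable-slope nonlinear regression.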

[2] = system: primary human fibroblasts derived from IPF patients (LL29 cells); experiment: Inhibition of the fibrotic process: αSMA staining in TGF-β1 treated LL29 fibroblasts; conditions: Fibroblast; for pEC50: 96 h, LL29 cells, TGF-β1 20 ng/mL, 4 days, % αSMA positive cells; for inhibition at 10 µM: read-out: percent inhibition at 10 μM
Procedure, shortened: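 IPF-patient-derived LL29 lung fibroblasts in F12 with 1% FBS, stimulated with TGF-β1 alongside compound; TGF-β1 plus DMSO wells served as controls. After 4 days, nuclei stained with 1 μM SYTOX green for 30 min at room temperature, alongside αSMA staining.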

IL-6 = IL-6 inhibition in LPS-stimulated THP-1 cells (HTRF); conditions: Homo sapiens; for inhibition at 10 µM: THP-1, read-out: percent inhibition at 10 μM; for pEC50: THP-1 cells, LPS 500 ng/mL, 22 hours, IL6 HTRF
Procedure, shortened: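 THP-1 cells kept 24 h in 1% FBS medium, treated 2 h at 37 °C, then stimulated with 500 ng/mL LPS for another 22 h. IL-6 measured by HTRF as the 665/620 nm ratio; EC50 from a four-parameter fit normalized to DMSO controls.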

SW480 colon cancer cells = experiment: Cell viability assay (CellTiter-Blue) in SW480 colon cancer cells; conditions: Homo sapiens; for pEC50: 96 h, SW480 cell viability, four days, CellTiter-Blue; for inhibition at 10 µM: SW480, read-out: percent inhibition at 10 μM
Procedure, shortened: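 Fluorescence from resazurin reduced to resorufin by metabolically active cells was the read-out, taken after ~3 h with CellTiter-Blue.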

EC50 [1] [nM]	pEC50 (Wnt activity)	pEC50 (IL-6)	pEC50 (SW480 colon cancer cells)	Structure (SMILES)	Emax [1] [%]	inhibition at 10 µM (Wnt activity) [%]	pEC50 [2]	inhibition at 10 µM (IL-6) [%]	inhibition at 10 µM (SW480 colon cancer cells) [%]	inhibition at 10 µM [2] [%]
10	< 5.00	< 5.00	< 5.00	Nc1cncc(-c2cc3c(-c4cc5c(-c6ccncc6)cncc5[nH]4)n[nH]c3cn2)c1 [Compound 115, 5-(3-(4-(Pyridin-4-yl)-1H-pyrrolo[2,3-c]pyridin-2-yl)-1H-pyrazolo[3,4-c]pyridin-5-yl)pyridin-3-amine]	52	14.2	5.43	4.3	22	–
10	6.23	5.51	5.96	Fc1cccc(-c2cncc3[nH]c(-c4n[nH]c5cnc(-c6cncnc6)cc45)cc23)c1 [Compound 27, 3-(4-(3-Fluorophenyl)-1H-pyrrolo[2,3-c]pyridin-2-yl)-5-(pyrimidin-5-yl)-1H-pyrazolo[3,4-c]pyridine]	56	–	6.36	–	–	–
–	5.74	5.08	5.36	CC(C)C(=O)Nc1cncc(-c2cc3c(-c4cc5c(-c6cccc(F)c6)cncc5[nH]4)n[nH]c3cn2)c1 [Compound 9, N-(5-(3-(4-(3-Fluorophenyl)-1H-pyrrolo[2,3-c]pyridin-2-yl)-1H-pyrazolo[3,4-c]pyridin-5-yl)pyridin-3-yl)isobutyramide]	42	–	5.75	–	–	–
2700	6.04	6.16	5.67	FC1(F)CCN(Cc2cncc(-c3cc4c(-c5cc6c(-c7cccnc7)cncc6[nH]5)n[nH]c4cn3)c2)C1 [Compound 110, 5-(5-((3,3-Difluoropyrrolidin-1-yl)methyl)pyridin-3-yl)-3-(4-(pyridin-3-yl)-1H-pyrrolo[2,3-c]pyridin-2-yl)-1H-pyrazolo[3,4-c]pyridine]	54	–	6.27	–	–	–
–	< 5.00	< 5.00	< 5.00	CS(=O)(=O)NCc1cc(F)cc(-c2cncc3[nH]c(-c4n[nH]c5cnc(-c6cncc(CN7CCCC7)c6)cc45)cc23)c1 [Compound 490, N-(3-Fluoro-5-(2-(5-(5-(pyrrolidin-1-ylmethyl)pyridin-3-yl)-1H-pyrazolo[3,4-c]pyridin-3-yl)-1H-pyrrolo[2,3-c]pyridin-4-yl)benzyl)methanesulfonamide]	8	8.5	< 5.00	0	17.4	21.4
2700	< 5.00	< 5.00	5.20	CN(C)Cc1cncc(-c2cc3c(-c4cc5c(-c6ccccc6F)cncc5[nH]4)n[nH]c3cn2)c1 [Compound 69, 1-(5-(3-(4-(2-Fluorophenyl)-1H-pyrrolo[2,3-c]pyridin-2-yl)-1H-pyrazolo[3,4-c]pyridin-5-yl)pyridin-3-yl)-N,N-dimethylmethanamine]	54	49.2	5.01	24.7	–	–
100	5.49	< 5.00	< 5.00	Fc1ccc(-c2cncc3[nH]c(-c4n[nH]c5cnc(-c6cncc(CN7CCC(F)(F)C7)c6)cc45)cc23)cc1 [Compound 54, 5-(5-((3,3-Difluoropyrrolidin-1-yl)methyl)pyridin-3-yl)-3-(4-(4-fluorophenyl)-1H-pyrrolo[2,3-c]pyridin-2-yl)-1H-pyrazolo[3,4-c]pyridine]	78	–	5.00	11.2	38.6	–
30	5.53	5.87	5.29	Nc1cncc(-c2cc3c(-c4cc5c(N6CCCCC6)cncc5[nH]4)n[nH]c3cn2)c1 [Compound 171, 5-(3-(4-(Piperidin-1-yl)-1H-pyrrolo[2,3-c]pyridin-2-yl)-1H-pyrazolo[3,4-c]pyridin-5-yl)pyridin-3-amine]	94	–	5.58	–	–	–
–	5.37	< 5.00	< 5.00	CC(C)Nc1cncc(-c2cc3c(-c4cc5c(-c6cc(F)cc(CNS(C)(=O)=O)c6)cncc5[nH]4)n[nH]c3cn2)c1 [Compound 488, N-(3-Fluoro-5-(2-(5-(5-(isopropylamino)pyridin-3-yl)-1H-pyrazolo[3,4-c]pyridin-3-yl)-1H-pyrrolo[2,3-c]pyridin-4-yl)benzyl)methanesulfonamide]	17	–	5.59	46.8	11	–
–	5.04	5.44	< 5.00	CCNCc1cncc(-c2cc3c(-c4cc5c(-c6ccccc6F)cncc5[nH]4)n[nH]c3cn2)c1 [Compound 62, N-((5-(3-(4-(2-Fluorophenyl)-1H-pyrrolo[2,3-c]pyridin-2-yl)-1H-pyrazolo[3,4-c]pyridin-5-yl)pyridin-3-yl)methyl)ethanamine]	21	–	5.58	–	44.4	–
–	5.79	5.44	5.47	Nc1cncc(-c2cc3c(-c4cc5c(-c6ccccc6F)cncc5[nH]4)n[nH]c3cn2)c1 [Compound 59, 5-(3-(4-(2-Fluorophenyl)-1H-pyrrolo[2,3-c]pyridin-2-yl)-1H-pyrazolo[3,4-c]pyridin-5-yl)pyridin-3-amine]	16	–	5.75	–	–	–
–	< 5.00	< 5.00	< 5.00	CC(C)CC(=O)Nc1cncc(-c2cc3c(-c4cc5c(-c6cc(F)cc(CNS(C)(=O)=O)c6)cncc5[nH]4)n[nH]c3cn2)c1 [Compound 478, N-(5-(3-(4-(3-Fluoro-5-(methylsulfonamidomethyl)phenyl)-1H-pyrrolo[2,3-c]pyridin-2-yl)-1H-pyrazolo[3,4-c]pyridin-5-yl)pyridin-3-yl)-3-methylbutanamide]	24	18.8	< 5.00	18.9	4.1	37.6
–	< 5.00	< 5.00	< 5.00	CC(C)(C)C(=O)Nc1cncc(-c2cc3c(-c4cc5c(-c6ccncc6)cncc5[nH]4)n[nH]c3cn2)c1 [Compound 120, N-(5-(3-(4-(Pyridin-4-yl)-1H-pyrrolo[2,3-c]pyridin-2-yl)-1H-pyrazolo[3,4-c]pyridin-5-yl)pyridin-3-yl)pivalamide]	30	22	5.27	16.4	29	–
100	5.40	< 5.00	5.24	Fc1cccc(-c2cncc3[nH]c(-c4n[nH]c5cnc(-c6cncc(CN7CCCC7)c6)cc45)cc23)c1 [Compound 14, 3-(4-(3-Fluorophenyl)-1H-pyrrolo[2,3-c]pyridin-2-yl)-5-(5-(pyrrolidin-1-ylmethyl)pyridin-3-yl)-1H-pyrazolo[3,4-c]pyridine]	81	–	5.45	48.2	–	–
